Entries after “also recorded” stand apart in the source; their conditions may differ.
Columns and labels:
oRG cells = test: Time-lapse imaging of mitotic somal translocation (MST) after shRNA knockdown, primary cortical slice culture; assay type: cell-based, human; conditions: for length of MST (somal translocation length): oRG cells during normal human development, primary slice culture, vs scrambled control hairpin
Description: As described by Hansen et al. (2010), human fetal brain tissue was collected and transported in artificial CSF (ACSF; 125 mm NaCl, 2.5 mm KCI, 1 mm MgCl2, 2 mm CaCl2, 1.25 mm NaH2PO4, 25 mm NaHCO3, 25 mm d-(+)-glucose, bubbled with 95%O2/5%CO2). Brain tissue was embedded in 3% low melting point agarose in ACSF and 250-300 µm coronal vibratome sections were generated. Sections were transferred on Millicell-CM slice culture inserts (Millipore) and cultured in cortical slice culture medium (66% BME, 25% Hanks, 5% FBS, 1% N-2, 1% penicillin, streptomycin and glutamine, all Invitrogen, and 0.66% d-(+)-glucose, Sigma-Aldrich). High titer gfp labeled lentivirus was applied directly to slices that were then cultured at 37° C., 5% CO2, 8% O2 for ~ 96 h. For time-lapse imaging, cultures were then transferred to an inverted Leica TCS SP5 with an on-stage incubator streaming 5% CO2, 5% O2, balance N2 into the chamber. Slices were imaged for GFP using a 10x objective at 15-30 min intervals for up to 3 d with repositioning of the z-stacks every ~12 h. Movies were analyzed with Imaris.
PTPRZ1 and its ligand, PTN, are identified in this disclosure as necessary for tumor invasion and viability. It was tested whether the expression of PTPRZ1 is required for the role of oRG-like cells in glioblastoma invasion using genetic and pharmacologic approaches. Previous work has linked PTPRZ1 and PTN with the Rho/Rho-kinase (ROCK) signaling pathway in glioblastoma. […] Given that the functional significance of key oRG markers such as PTPRZ1 remains unknown, and the role of MST has not been previously described in glioblastoma, the role of PTPRZ1/PTN signaling in oRG cell behavior was studied. shRNA mediated knock down of both PTPRZ1 and PTN in oRG cells was used during normal human development and the impact on MST was monitored. […] To relate these findings to invasive behavior, in vitro invasion assays were performed on PDX tumor samples treated with either control, scrambled shRNAs, PTPRZ1 shRNAs, or Rock inhibitor to inhibit MST.

[1] = system: DBTRGFL patient derived xenograft line; test: Time-lapse imaging of MST after shRNA knockdown in PDX line; assay type: cell-based, human; conditions: 4 technical replicates
Procedure: FIG. 6A. PTPRZ1 Promotes MST driven invasiveness of glioblastoma.
Dissociated tumor cells were seeded onto matrigel coated glass bottom wells. 24 hours after plating cells were infected with a CMV-adeno-GFP virus (Vector Biolabs) to allow for visualization of cell morphology and behavior. Cell were cultured at 37° C., 5% CO2, and 8% O2, and monitored for GFP and expression (~ 24 to 48 h). Cultured cells were then transferred to an inverted Leica TCS SP5 with an on-stage incubator (while streaming 5% CO2, 5% O2, balance N2 into the chamber), and imaged in both the GFP and transmitted light channels using a × 10 objective at 15-20 min intervals for up to 4. Movies were analyzed with Imaris.

[2] = system: patient derived xenograft (PDX) line DBTRGFL; test: In vitro invasion assay (gap filling); assay type: cell-based, human; conditions: imaged every 24 hours, Day 0 to Day 3, vs scrambled shRNA control
Procedure: FIG. 6B. PTPRZ1 Promotes MST driven invasiveness of glioblastoma. Invasion assays of patient derived xenograft (PDX) line DBTRGFL were performed with control (scrambled shRNA), PTPRZ1 knockdown (shRNA) and Rock Inhibition. Invasions were imaged every 24 hours, and Day 0 and Day 3 are shown. Quantification was performed by calculating how much of the gap was filled. Statistics were performed for both PTPRZ1 knockdown and Rock inhibition, and statistics are showing for Rock inhibition on top and PTPRZ1 knockdown below (* = p <0.05, ** p < 0.01, *** p < 0.001, Student’s two-sided t-test).
PTPRZ1 and its ligand, PTN, are identified in this disclosure as necessary for tumor invasion and viability. It was tested whether the expression of PTPRZ1 is required for the role of oRG-like cells in glioblastoma invasion using genetic and pharmacologic approaches. Previous work has linked PTPRZ1 and PTN with the Rho/Rho-kinase (ROCK) signaling pathway in glioblastoma. […] Given that the functional significance of key oRG markers such as PTPRZ1 remains unknown, and the role of MST has not been previously described in glioblastoma, the role of PTPRZ1/PTN signaling in oRG cell behavior was studied. shRNA mediated knock down of both PTPRZ1 and PTN in oRG cells was used during normal human development and the impact on MST was monitored. […]

[3] = Proliferation, cell titer blue assay; assay type: cell-based; conditions: any time point, n=5
Description: FIG. 12D. Transplants of primary glioblastoma tumors into cortical organoids. Proliferation as indicated by cell titer blue assay is shown for PTPRZ1 shScr (Ctrl) or shPTPRZ1 (KD). […] On the right, an invasion well with white lines added to mark the bounds of the invasion chamber.

[4] = system: primary developing human cortex cells and primary glioblastoma cells; test: Single-cell RNA sequencing after PTPRZ1 knockdown; assay type: cell-based; conditions: primary and glioblastoma samples
Description: FIG. 5F. Sorting for PTPRZ1 positive cells enriches for oRG-like cells. Workflow of single-cell sequencing is shown. PTPRZ1 KD and a scrambled control were used to knockdown PTPRZ1 in both primary developing human cortex cells and primary glioblastoma cells. […] (* = p-value < 0.05). […] These changes were accompanied by a significant downregulation of several outer radial glia marker genes.
Primary cells (GW 17, n = 2) and primary tumor samples (n = 2) were dissociated and infected with lentivirus either with a hairpin against PTPRZ1 mRNA or a control hairpin during plating. Cells were maintained in their normal media conditions for 1 week, after which cells were removed from the plate with trypsinization, dissociated into a single-cell suspension, and captured with 10X v2 single-cell as previously described.
To better understand the molecular mechanism of PTPRZ1 signaling in glioblastoma tumor propagation, and to characterize how these cells differ from normal radial glia, in vitro KD was performed of PTRPZ1 in dissociated cell culture of primary developing cortex, primary tumor dissociated cell culture, and PDX dissociated cell culture. […] Each control/treatment pair was analyzed individually and the radial glia populations were isolated for further examination (FIG. 5F). […]

PTPRZ1 = test: Validation of knockdown (immunofluorescence, Western blot, qPCR); assay type: cell-based, human; conditions: vs scrambled control hairpin
Procedure: FIG. 12B. Transplants of primary glioblastoma tumors into cortical organoids. […] Western blot and qPCR to validate knockdown (quantified across 3 replicates for qPCR) were also performed.

Substance	length of MST (somal translocation length) (oRG cells)	somal translocation length (oRG cells; primary samples, 3 biological replicates and 4 technical replicates each (FIG. 6A))	length of MST (somal translocation length) [1]	invasive behavior of the PDX tumors [2]	Proliferation, difference shScr (Ctrl) vs shPTPRZ1 (KD) [3]	proportion of radial glia and other progenitor populations ([4]; 1 week after lentiviral infection, vs scrambled hairpin)	expression of other key markers of radial glia identity ([4]; radial glia populations)	PTPRZ1 protein knockdown (PTPRZ1)
PTN shRNA: short hairpin RNA knocking down PTN, the ligand of PTPRZ1; exemplary sequence SEQ ID NO: 6 (CCGGAGGCAAGAAACAGGAGAAGATCTCGAGATCTTCTCCTGTTTCTTGCCTTTTTT)	significantly reduced the length of MST; also recorded: decrease the length of somal translocation length	–	–	–	–	–	–	–
PTPRZ1 shRNA: short hairpin RNA against PTPRZ1 mRNA, lentivirus-delivered; exemplary sequence SEQ ID NO: 5 (CCGGCCAGACAACAAGCACAAGAATCTCGAGATTCTTGTGCTTGTTGTCTGGTTTTT)	significantly reduced the length of MST; also recorded: decrease the length of somal translocation length	decrease the length of somal translocation length	similarly impacted the length of MST; also recorded: decrease the length of somal translocation length	significantly decreased the invasive behavior	not significant	decrease in the proportion of both radial glia and other progenitor populations	down-regulated	validates protein knockdown
